Bridge positions count the residues as written; N and C are the ends. Peptide text beside a SMILES is read from it.

The subject of test [1] is endogenous KLK5 of NS keratinocytes. The test is described as follows: KLK5 protease activity assay for culture medium of NS keratinocytes. In kind it is biochemical, human. The conditions noted are these: for KLK5 activity in NS keratinocytes medium after treatment: one hour, n = 3, untreated 51.9 ± 1.6 nmol/g. The method, then:
To evaluate the inhibition of lead 7 on endogenous KLK5 activity, media collected from cultured NS keratinocytes and healthy donor keratinocytes were incubated with lead 7 at the final concentration of 100 nM, or 1 μM, or 10 μM for one hour. Media were then concentrated, and KLK5 activity was measured. […] There were significant differences in KLK5 activity before and after treatment (p < 0.05, n = 3). […] This may be because lead 7 exerts inhibitory effects only when KLK5 activity exceeds a certain threshold, which is not reached in keratinocytes from healthy donors. It was noted that the activity of KLK5 in NS was not reduced to the levels observed in normal keratinocytes. Two reasons might be behind this: (i) a higher lead 7 dose may be required, and (ii) the VPR-AMC substrate can be cleaved by a wider range of serine proteases. The remaining noninhibitory activity could be attributed to the presence of other trypsin-like serine proteases secreted in the cultured medium, which can hydrolyze the VPR-AMC substrate but are not inhibited by lead 7. […]
KLK5 protease activity assay for culture medium
Keratinocytes were seeded in 6 well plate with the density of 0.2 × 10⁶ cells per well and cultured in RM+ medium until they reached confluency. The culture media were changed to FBS free-RM+ media, and cells were continuously cultured. 48 hours after the medium changing, the culture media were harvested from the cell culture plates and centrifuged to remove dead cells. A volume of 180 µL of the supernatants was transferred to 1.5 mL Eppendorf tubes, followed by the addition of 20 µL of analogues in 1x PBS at different concentrations. The samples in which 20 µL of 1x PBS instead of the lead 7 were added were as untreated controls. These mixtures were incubated for one hours at 37 degrees Celsius and then processed for precipitation to concentrate the samples using ProteoExtract® Protein Precipitation Kit (Millipore, cat no. 539180). The precipitates were resuspended in 20 µL of 1X PBS (pH 8.0) for protease activity assessment using protease activity assay. 10uL of suspension from each sample was added in 96 well black plate. The enzymatic reaction was initiated by adding 100 µL of Boc-VPR-AMC substrate (final concentration 100 µM) to each well and RFU values in samples were measured. Protease activities were expressed as nmol/g by first converting RFU readings to KLK5 equivalent concentration activity using a KLK5 standard curve, followed by normalization to total protein content

Test [2] concerns endogenous KLK5 of healthy donor keratinocytes. The test is described as follows: KLK5 protease activity assay for culture medium of healthy donor keratinocytes. The test is classed as biochemical, human. The conditions noted are these: 100 nM, 1 μM, 10 μM; p > 0.05, n = 9. On the procedure:
To evaluate the inhibition of lead 7 on endogenous KLK5 activity, media collected from cultured NS keratinocytes and healthy donor keratinocytes were incubated with lead 7 at the final concentration of 100 nM, or 1 μM, or 10 μM for one hour. Media were then concentrated, and KLK5 activity was measured. […] There were significant differences in KLK5 activity before and after treatment (p < 0.05, n = 3). […] This may be because lead 7 exerts inhibitory effects only when KLK5 activity exceeds a certain threshold, which is not reached in keratinocytes from healthy donors. It was noted that the activity of KLK5 in NS was not reduced to the levels observed in normal keratinocytes. […]
calcium signalling. […] Fluorescence excitation was set at 485 nm, and emission was recorded at 520 nm using SpectraMax® i3x plate reader. […]
Keratinocytes were seeded in 6 well plate with the density of 0.2 × 10⁶ cells per well and cultured in RM+ medium until they reached confluency. […] The enzymatic reaction was initiated by adding 100 µL of Boc-VPR-AMC substrate (final concentration 100 µM) to each well and RFU values in samples were measured. Protease activities were expressed as nmol/g by first converting RFU readings to KLK5 equivalent concentration activity using a KLK5 standard curve, followed by normalization to total protein content

The subject of test [3] is NS keratinocytes. The test is described as follows: Transepithelial electrical resistance (TEER) assay, NS keratinocytes. In kind it is cell-based, human. The conditions noted are these: 1 μM, 9 days, p < 0.05, n = 18. An excerpt:
KLK5 regulates epidermal barrier homeostasis by targeting corneodesmosomal proteins involved in cell–cell adhesion, including desmoglein-1 (DSG1), desmocollin-1 (DSC1), and corneodesmosin (CDSN). Dysregulated KLK5 activity can accelerate the degradation of these adhesion molecules, leading to impaired corneocyte cohesion and disruption of the epithelial barrier. To assess whether control of KLK5 activity by lead 7 could improve barrier integrity, the resistance of epidermal sheets generated using NS and healthy donor keratinocytes was measured using a transepithelial electrical resistance (TEER) assay. Keratinocytes from NS keratinocyte and three healthy donors were seeded in 6-well plates and cultured in the medium with 1 μM of lead 7 or without. The medium was replaced every 3 days with fresh lead 7 added in the treated groups. TEER measurements were performed every other day, and cultures were maintained until TEER values reached a plateau (9 days).
Transepithelial Electrical Resistance (TEER) assay […]
Transepithelial electrical resistance (TEER) values in ohms (Ω) were measured using the EVOM™ Manual Resistance Meter (World Precision Instruments, cat no. EVM-MT-03-02). Background resistance was first recorded using inserts containing only medium (without cells). […]
One-way ANOVA was used for KLK5 activity study. […] TEER study data was analysed using the Wilcoxon […]

`C[C@@H](O)[C@@H]1NC(=O)[C@@H]2CSSC[C@H](NC(=O)[C@H](CCC(=O)O)NC(=O)[C@@H]3CCCN3C(=O)[C@@H]3CCCN3C(=O)[C@H](CC(N)=O)NC(=O)[C@H](CO)NC(=O)[C@H](CCCNC(=N)N)NC1=O)C(=O)N[C@@H](Cc1c[nH]c3ccccc13)C(=O)N1CCC[C@H]1C(=O)N[C@@H](CC(N)=O)C(=O)NCC(=O)N[C@@H](Cc1ccccc1)C(=O)N2` [compound 7] (cyclo(GFCTRSNPPECWPN); disulfide 3-11): the “reduction in KLK5 activity, NS keratinocytes” value in test [1] (100 nM) is reported as 14.6%; in test [1] (1 μM), 35.5%; in test [1] (10 μM) it was 41.2%. The “KLK5 activity in NS keratinocytes medium after treatment” value in test [1] (100 nM) came out at 44.3 ± 2.7 nmol/g; in test [1] (1 μM) it was 33.5 ± 2.6 nmol/g; in test [1] (10 μM) it was 30.5 ± 1.7 nmol/g. Also, the “KLK5 activity before and after treatment, normal donor keratinocytes” value in test [2] is listed as “no significant differences”. In test [3], the “TEER, treated versus untreated NS keratinocytes” value was “obvious increase in TEER values”.
